# Like-named read-outs stand apart in the source and are kept apart here.
# Columns and labels:
# [1] = target: CDC7/DBF4 kinase (Homo sapiens, UniProt O00311); assay: ADP-Glo kinase assay, inhibition of CDC7/DBF4 kinase activity; type: biochemical; details: for IC50: CDC7/DBF4, 10 μM ATP
# Description: The ADP-Glo™ kinase assay is a chemiluminescent kinase assay. The reaction of kinase with substrate requires ATP to provide energy, thereby converting ATP into ADP. The enzymatic activity is reflected by the amount of ADP produced in the reaction. In the assay, ADP is converted into ATP, and then ATP binds to Ultra-Glo™ Luciferase with light emitted; the intensity of light emission is directly proportional to the amount of ADP.
# The ADP-Glo™ assay was used to investigate the inhibitory effect of crystal form A of the test compound of formula (II) on the activity of CDC7/DBF4 kinase. The highest concentration of the test compound was 10 μM, and 5-fold serial dilution was performed to obtain 8 concentration points. The compound was re-tested on a different day, and each test was performed in duplicate.
# • 1) Preparation of 10 mM DTT (freshly prepared at the time of use) • 1 μL of 0.1 M DTT was measured out and 9 μL of deionized water was added. • 2) 2× assay buffer (freshly prepared at the time of use) • 168 μL of Kinase assay buffer III was measured out and 2.5-fold diluted with 248 μL of deionized water, and 4.2 μL of 10 mM DTT was added. The buffer was kept on ice before use. • 3) 1× assay buffer (freshly prepared at the time of use) • 250 μL of 2× assay buffer was measured out and diluted into 1× assay buffer by adding 250 μL of deionized water. The buffer was kept on ice before use. • 4) ADP-Glo Kinase Assay
# The kit contains an ADP-Glo™ reagent, a kinase assay solution, a kinase assay solution matrix and a 10 mM ATP stock solution.
# Preparation of the kinase assay solution: The kinase assay buffer and the kinase assay solution matrix were equilibrated to room temperature and then mixed. After complete dissolution, the solution was ready. The unused solution should be aliquoted and stored at −20° C.
# ADP-Glo™ reagent: The reagent was equilibrated to room temperature at the time of the first use. The unused solution should be aliquoted and stored at −20° C.
# • 1) 10 mM test compound was diluted to 1 mM with 100% DMSO: 5 μL of 10 mM test compound was added to 45 μL of 100% DMSO; the concentration of the compound dilution was 1 mM, and the dilution was put into row A of a 384-well compound plate as the highest concentration. • 2) To row B through row H of the 384-well compound plate was added 20 μL of 100% DMSO. • 3) From row A, 5 μL of compound was transferred to row B, and the mixture was well mixed. Then 5 μL of compound was transferred from row B to row C, and the mixture was well mixed. This procedure was repeated to row H to complete the serial dilution of the compound. • 4) Preparation of compound working solutions: 0.5 μL/well of compound was transferred to a new 384-well compound plate, and 9.5 μL of 1× assay buffer was added. […]
# [2] = Stability test under accelerated conditions (HPLC related substances, appearance, crystal form, ee); type: physicochemical; parameters: impurity at RRT 0.31 / impurity at RRT 1.40 / impurity at RRT 0.23 / impurity at RRT 0.91 / impurity at RRT 0.98 / impurity at RRT 0.99 / impurity at RRT 1.08: unit not given here
# Method: Instrument model: Agilent 1200 high performance liquid chromatograph
# 50 mg of crystal form A of the compound of formula (II) was measured and placed in a dry, clean glass bottle, spread into a thin layer, and left to stand under accelerated conditions (60° C., 25/92.5% RH, 40° C./75% RH and 60° C./75% RH). The sample was completely exposed, and the bottle was covered with aluminum foil in which holes are pricked. Samples were taken at 5 days, 10 days, 1 month, 2 months and 3 months and analyzed.
# [3] = Hygroscopicity test (25° C., saturated ammonium chloride solution, 24 h); type: physicochemical; details: 25° C./80% RH criteria
# Method: A dry glass weighing bottle with a lid was placed in a dryer with saturated ammonium chloride solution placed in the lower part, and the weighing bottle was left to stand uncovered. A lid was put on the dryer, and the dryer was placed in a 25° C. box and left to stand overnight. After being left to stand overnight, the weighing bottle was taken out and precisely weighed, and the weight was denoted by m1.
# A proper amount of crystal form A of the compound of formula (II) was measured out and spread in the weighed measuring bottle (the sample was about 1 mm thick). The measuring bottled was then precisely weighed, and the weight was denoted by m2.
# The weighing bottle, together with its lid, was placed in a dryer with saturated ammonium chloride solution placed in the lower part and left to stand uncovered. A lid was put on the dryer, and the dryer was placed in a 25° C. box and left to stand for 24 h. After 24 h of sitting, the lid was put on the weighing bottle and the bottle was taken out and precisely weighed, the weight denoted by m3.
# The hygroscopic weight gain was calculated using the formula: percent weight gain=100%×(m3−m2)/(m2−m1).
# [4] = system: COLO205 cells; assay: CellTiter-Glo cell viability assay, proliferation of COLO205 cells; type: cell-based, Human; details: for IC50: Homo sapiens, COLO 205, 72 h, COLO205, 3 days incubation
# Description: In the assay, the inhibitory effect of crystal form A of the compound of formula (II) on the proliferation of colorectal cell COLO205 that highly expresses Cdc7 was investigated.
# CellTiter-Glo® Luminescent Cell Viability Assay is a homogeneous rapid assay for the viability of living cells in cultures by ATP quantification. ATP is an indicator of the metabolism of living cells. Cell lysis and the luminescence signals generated are directly proportional to the amount of ATP that exists, and the amount of ATP is directly proportional to the number of living cells in cultures.
# Cells having achieved 80%-90% cell fusion were digested with pancreatin. After the digestion was stopped with 1 mL of culture medium, the cells were transferred to a new culture dish according to a proper proportion, and 10 mL of fresh cell culture medium was added to the culture dish. Then the cell culture dish was placed in a 37° C., 5% CO2 incubator to continue the culture.
# The compound was diluted to 2 mM with 100% DMSO—that is, 5 μL of 10 mM compound stock solution was transferred to column 1 of a 96-well compound plate, 20 μL of 100% DMSO was then added, and the mixture was well mixed. To column 2 through column 9 of the 96-well compound plate was added 20 μL of 100% DMSO. From column 1, 10 μL of compound was transferred to column 2, and the mixture was well mixed. Then 10 μL of compound was transferred from column 2 to column 3, and the mixture was well mixed. This procedure was repeated to column 9 to complete the serial dilution of the compound. Preparation of compound working solutions: From the compound plate, 2 μL/well of compound was transferred to a new 96-well compound plate, and 78 μL/well of cell culture medium was added. To a negative control well was added 2 μL of 100% DMSO followed by 78 μL of cell culture medium. The compound concentration was the final concentration. The blank control well was a culture medium well containing no cells. The negative control was […].
# COLO205 cells having achieved 80%-90% cell fusion were digested with pancreatin and counted. After counting, the cell suspension was diluted with cell culture medium to a desired density. To each well of a 96-well cell culture plate was inoculated 80 μL of cell suspension. […]
# After the incubation, 100 μL of CTG assay reagent was added to each well of the cell plate, and the plate was incubated at 25° C. for 10 min. After the incubation, luminescence signals were measured on Envision.
# The signal value of the background blank control well was subtracted from the measured signal value of each group for standardization. […]
# The percent inhibition was calculated from the original readings according to the calculation formula. A graph was then plotted using Prism and the IC50 of the compound was calculated.
# Chain of CDC7/DBF4 kinase (O00311 whole entry): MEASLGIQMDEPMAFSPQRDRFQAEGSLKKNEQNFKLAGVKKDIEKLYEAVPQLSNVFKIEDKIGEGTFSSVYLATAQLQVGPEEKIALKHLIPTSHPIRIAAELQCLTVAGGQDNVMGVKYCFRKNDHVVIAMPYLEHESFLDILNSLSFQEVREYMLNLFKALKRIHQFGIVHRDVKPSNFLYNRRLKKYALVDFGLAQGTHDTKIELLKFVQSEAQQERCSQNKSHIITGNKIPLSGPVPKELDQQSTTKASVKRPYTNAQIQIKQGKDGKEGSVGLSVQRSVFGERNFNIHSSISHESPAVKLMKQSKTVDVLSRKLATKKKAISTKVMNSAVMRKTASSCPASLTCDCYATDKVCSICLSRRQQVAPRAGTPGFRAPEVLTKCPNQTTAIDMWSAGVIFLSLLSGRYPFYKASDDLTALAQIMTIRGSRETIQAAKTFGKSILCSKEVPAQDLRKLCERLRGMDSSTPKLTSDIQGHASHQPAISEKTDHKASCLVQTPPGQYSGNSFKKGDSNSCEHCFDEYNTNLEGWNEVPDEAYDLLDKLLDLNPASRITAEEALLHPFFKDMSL
# Chain of CDC7/DBF4 kinase (Q9UBU7 whole entry partner): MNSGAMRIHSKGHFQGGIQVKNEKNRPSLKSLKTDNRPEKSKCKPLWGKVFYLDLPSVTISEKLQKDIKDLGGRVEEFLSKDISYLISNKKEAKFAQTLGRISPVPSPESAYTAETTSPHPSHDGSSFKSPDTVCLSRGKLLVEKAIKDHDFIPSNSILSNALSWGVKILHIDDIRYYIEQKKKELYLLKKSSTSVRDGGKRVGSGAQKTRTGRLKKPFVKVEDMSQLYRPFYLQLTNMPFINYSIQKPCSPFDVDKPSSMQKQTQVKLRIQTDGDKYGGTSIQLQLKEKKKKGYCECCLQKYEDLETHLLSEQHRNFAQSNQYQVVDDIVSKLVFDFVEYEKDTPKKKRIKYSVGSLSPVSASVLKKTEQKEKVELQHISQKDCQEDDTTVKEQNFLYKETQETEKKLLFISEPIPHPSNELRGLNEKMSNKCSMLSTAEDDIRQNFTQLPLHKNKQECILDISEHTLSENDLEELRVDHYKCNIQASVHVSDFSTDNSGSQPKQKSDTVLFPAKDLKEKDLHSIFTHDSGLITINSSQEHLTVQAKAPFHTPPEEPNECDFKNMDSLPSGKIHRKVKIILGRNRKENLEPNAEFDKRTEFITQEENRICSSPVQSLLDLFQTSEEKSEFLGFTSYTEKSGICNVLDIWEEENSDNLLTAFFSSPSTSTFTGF
compound,measurement,setting,value
O=C(O)/C=C\C(=O)O.O=c1[nH]c([C@@H]2CC3CCN2CC3)nc2c3c(sc12)-c1cn[nH]c1CCC3,IC50,"[1]; first assay, read-out: IC50 (nM) First assay",3.49 nM
same,IC50,"[1]; mean of two assays, read-out: IC50 (nM) Mean",2.92 nM
same,IC50,"[1]; second assay, read-out: IC50 (nM) Second assay",2.35 nM
same,inhibitory effect on enzyme CDC7/DBF4,[1]; conclusion in words,relatively strong inhibitory effect
same,Appearance,[2]; 0 days,White
same,ee %,[2]; 0 days,99.028%
same,impurity at RRT 0.31,[2]; 0 days,0.02
same,Appearance,[2]; 25/92.5% RH-5 days,White
same,TRS(%) total impurity content,[2]; 25/92.5% RH-5 days,0.03%
same,ee %,[2]; 25/92.5% RH-5 days,98.77%
same,impurity at RRT 0.31,[2]; 25/92.5% RH-5 days,0.03
same,Appearance,[2]; 25/92.5% RH-10 days,White
same,TRS(%) total impurity content,[2]; 25/92.5% RH-10 days,0.06%
same,ee %,[2]; 25/92.5% RH-10 days,98.958%
same,impurity at RRT 0.31,[2]; 25/92.5% RH-10 days,0.03
same,impurity at RRT 1.40,[2]; 25/92.5% RH-10 days,0.03
same,Appearance,[2]; 40° C./75% RH-1 month,White
same,TRS(%) total impurity content,[2]; 40° C./75% RH-1 month,0.02%
same,ee %,[2]; 40° C./75% RH-1 month,99.380%
same,impurity at RRT 0.31,[2]; 40° C./75% RH-1 month,0.02
same,Appearance,[2]; 40° C./75% RH-2 months,White
same,TRS(%) total impurity content,[2]; 40° C./75% RH-2 months,0.02%
same,ee %,[2]; 40° C./75% RH-2 months,100%
same,impurity at RRT 0.91,[2]; 40° C./75% RH-2 months,0.02
same,Appearance,[2]; 40° C./75% RH-3 months,White
same,TRS(%) total impurity content,[2]; 40° C./75% RH-3 months,0%
same,ee %,[2]; 40° C./75% RH-3 months,100%
same,Appearance,[2]; 40° C./75% RH-10 days,White
same,TRS(%) total impurity content,[2]; 40° C./75% RH-10 days,0.04%
same,ee %,[2]; 40° C./75% RH-10 days,99.164%
same,impurity at RRT 0.23,[2]; 40° C./75% RH-10 days,0.02
same,impurity at RRT 0.31,[2]; 40° C./75% RH-10 days,0.02
same,Appearance,[2]; 60° C.-5 days,White
same,TRS(%) total impurity content,[2]; 60° C.-5 days,0.06%
same,ee %,[2]; 60° C.-5 days,98.632%
same,impurity at RRT 0.23,[2]; 60° C.-5 days,0.03
same,impurity at RRT 0.31,[2]; 60° C.-5 days,0.03
same,Appearance,[2]; 60° C.-10 days,White
same,TRS(%) total impurity content,[2]; 60° C.-10 days,0.10%
same,ee %,[2]; 60° C.-10 days,98.900%
same,impurity at RRT 0.23,[2]; 60° C.-10 days,0.02
same,impurity at RRT 0.31,[2]; 60° C.-10 days,0.03
same,impurity at RRT 1.08,[2]; 60° C.-10 days,0.05
same,Appearance,[2]; 60° C./75% RH-1 month,White
same,TRS(%) total impurity content,[2]; 60° C./75% RH-1 month,0.08%
same,ee %,[2]; 60° C./75% RH-1 month,100%
same,impurity at RRT 0.23,[2]; 60° C./75% RH-1 month,0.02
same,impurity at RRT 0.98,[2]; 60° C./75% RH-1 month,0.03
same,impurity at RRT 0.99,[2]; 60° C./75% RH-1 month,0.03
same,Appearance,[2]; 60° C./75% RH-10 days,White
same,TRS(%) total impurity content,[2]; 60° C./75% RH-10 days,0.03%
same,ee %,[2]; 60° C./75% RH-10 days,98.872%
same,impurity at RRT 0.23,[2]; 60° C./75% RH-10 days,0.03
same,stability (impurity content) under high temperature and high humidity conditions,[2]; conclusion in words,the stability is good
same,category of hygroscopicity,[3],non-hygroscopic or hardly hygroscopic
same,IC50,"[4]; first assay, read-out: COLO205(nM) IC50 First assay",14.3 nM
same,IC50,"[4]; mean of two assays, read-out: COLO205(nM) IC50 Mean",14.5 nM
same,IC50,"[4]; second assay, read-out: COLO205(nM) IC50 Second assay",14.7 nM
same,inhibitory effect on COLO205 cells,[4]; conclusion in words,relatively strong inhibitory effect
